Measured values taken from ChEMBL document CHEMBL5352392, “Design, synthesis, and biological evaluation of novel dual inhibitors of heat shock protein 90/mammalian target of rapamycin (Hsp90/mTOR) against bladder cancer cells” (Eur J Med Chem, 2022).

Key:
T-24 [1] = experiment: Antiproliferative activity against human T24 cells assessed as inhibition of cell proliferation at 1 uM by CCK8 assay relative to control; assay type: functional
SW780 [2] = experiment: Antiproliferative activity against human SW780 cells assessed as inhibition of cell proliferation by CCK8 assay; assay type: functional, cell-based
J82 [3] = experiment: Antiproliferative activity against human J82 cells assessed as inhibition of cell proliferation at 1 uM by CCK8 assay relative to control; assay type: functional
SW780 [4] = experiment: Antiproliferative activity against human SW780 cells assessed as inhibition of cell proliferation at 1 uM by CCK8 assay relative to control; assay type: functional
J82 [5] = experiment: Antiproliferative activity against human J82 cells assessed as inhibition of cell proliferation by CCK8 assay; assay type: functional, cell-based
T-24 [6] = experiment: Antiproliferative activity against human T24 cells assessed as inhibition of cell proliferation by CCK8 assay; assay type: functional, cell-based
[7] = biological target: Serine/threonine-protein kinase mTOR (Homo sapiens, UniProt P42345); experiment: Inhibition of mTOR (unknown origin) at 100 nM by kinase profiling assay relative to control
Heat shock protein HSP90 = Heat shock protein HSP90 (Homo sapiens, UniProt P07900+P08238); settings: dose 100.0 nM
Description: Inhibition of Hsp90 (unknown origin) at 100 nM by TR-FRET assay relative to control

[8] = biological target: Phosphatidylinositol 4,5-bisphosphate 3-kinase catalytic subunit alpha isoform (Homo sapiens, UniProt P42336); experiment: Inhibition of PI3Kalpha (unknown origin) by kinase profiling assay
Phosphatidylinositol 4,5-bisphosphate 3-kinase catalytic subunit alpha isoform, sequence (P42336 whole entry, canonical isoform): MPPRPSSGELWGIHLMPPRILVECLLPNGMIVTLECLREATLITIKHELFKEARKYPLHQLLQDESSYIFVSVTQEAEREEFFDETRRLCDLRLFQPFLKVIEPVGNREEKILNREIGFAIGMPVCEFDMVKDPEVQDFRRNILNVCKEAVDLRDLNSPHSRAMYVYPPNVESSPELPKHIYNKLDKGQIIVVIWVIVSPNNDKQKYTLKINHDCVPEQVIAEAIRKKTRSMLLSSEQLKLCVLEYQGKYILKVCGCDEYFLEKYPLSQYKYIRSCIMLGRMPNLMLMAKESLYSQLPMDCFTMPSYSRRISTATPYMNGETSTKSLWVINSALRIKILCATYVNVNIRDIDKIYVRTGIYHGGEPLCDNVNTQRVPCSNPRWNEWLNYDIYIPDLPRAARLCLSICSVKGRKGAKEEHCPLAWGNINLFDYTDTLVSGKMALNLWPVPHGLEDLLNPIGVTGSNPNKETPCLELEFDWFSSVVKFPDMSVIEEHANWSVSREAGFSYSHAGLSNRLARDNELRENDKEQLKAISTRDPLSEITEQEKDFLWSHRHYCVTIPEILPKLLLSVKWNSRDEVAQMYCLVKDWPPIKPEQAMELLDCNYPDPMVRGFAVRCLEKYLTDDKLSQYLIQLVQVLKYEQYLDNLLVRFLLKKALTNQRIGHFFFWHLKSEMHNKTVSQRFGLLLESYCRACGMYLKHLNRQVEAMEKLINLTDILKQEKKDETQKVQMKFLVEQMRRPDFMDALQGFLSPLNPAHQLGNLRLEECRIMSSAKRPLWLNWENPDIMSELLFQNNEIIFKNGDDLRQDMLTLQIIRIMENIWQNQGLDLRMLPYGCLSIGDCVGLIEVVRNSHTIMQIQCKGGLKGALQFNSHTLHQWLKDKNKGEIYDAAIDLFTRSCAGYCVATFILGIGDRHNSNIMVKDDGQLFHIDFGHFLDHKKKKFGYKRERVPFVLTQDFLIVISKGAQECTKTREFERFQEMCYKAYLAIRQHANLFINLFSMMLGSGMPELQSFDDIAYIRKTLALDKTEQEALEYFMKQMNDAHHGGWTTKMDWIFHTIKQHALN

CCNC(=O)c1noc(-c2cc(C(C)C)c(O)cc2O)c1-c1ccc(CN2CCOCC2)cc1 [LUMINESPIB]
inhibition at 1 µM (T-24 [1]): 38.8% | IC50 (SW780 [2]): 3.95 µM | inhibition at 1 µM (J82 [3]): 35.1% | inhibition at 1 µM (SW780 [4]): 46.4% | IC50 (J82 [5]): 5.2 µM | IC50 (T-24 [6]): 4.93 µM

Cc1ccc(NC(=O)Nc2ccc(-c3nc(N4CCOCC4)c4c5c(sc4n3)CN(C(=O)c3cc(C(C)C)c(O)cc3O)CC5)cc2)cc1
inhibition at 1 µM (T-24 [1]): 67.8% | inhibition [7]: 71.8% | inhibition at 1 µM (J82 [3]): 65.8% | inhibition at 1 µM (SW780 [4]): 74.5% | inhibition (Heat shock protein HSP90): 61.6%

CC(C)c1cc(C(=O)N2CCc3c(sc4nc(-c5ccc(NC(=O)Nc6ccccc6F)cc5)nc(N5CCOCC5)c34)C2)c(O)cc1O
inhibition at 1 µM (T-24 [1]): 70.1% | inhibition [7]: 74.8% | inhibition at 1 µM (J82 [3]): 78.7% | inhibition at 1 µM (SW780 [4]): 83.7% | inhibition (Heat shock protein HSP90): 70%

CC(C)c1cc(C(=O)N2CCc3c(sc4nc(-c5ccc(NC(=O)Nc6cc(F)cc(F)c6)cc5)nc(N5CCOCC5)c34)C2)c(O)cc1O
inhibition at 1 µM (T-24 [1]): 61.3% | inhibition [7]: 70.5% | inhibition at 1 µM (J82 [3]): 78% | inhibition at 1 µM (SW780 [4]): 53.5% | inhibition (Heat shock protein HSP90): 58.1%

Cc1ccccc1NC(=O)Nc1ccc(-c2nc(N3CCOCC3)c3c4c(sc3n2)CN(C(=O)c2cc(C(C)C)c(O)cc2O)CC4)cc1
inhibition at 1 µM (T-24 [1]): 78% | inhibition [7]: 68.2% | inhibition at 1 µM (J82 [3]): 66.2% | inhibition at 1 µM (SW780 [4]): 53.7% | inhibition (Heat shock protein HSP90): 62.6%

CC(C)c1cc(C(=O)N2CCc3c(sc4nc(-c5ccc(N)cc5)nc(N5CCOCC5)c34)C2)c(O)cc1O
inhibition at 1 µM (T-24 [1]): 70.6% | inhibition [7]: 67.4% | inhibition at 1 µM (J82 [3]): 64.4% | inhibition at 1 µM (SW780 [4]): 66.2% | inhibition (Heat shock protein HSP90): 57.8%

CC(C)c1cc(C(=O)N2CCc3c(sc4nc(-c5ccc(NC(=O)N6CCOCC6)cc5)nc(N5CCOCC5)c34)C2)c(O)cc1O
inhibition at 1 µM (T-24 [1]): 44.8% | inhibition [7]: 53.7% | inhibition at 1 µM (J82 [3]): 67.2% | inhibition at 1 µM (SW780 [4]): 49.8% | inhibition (Heat shock protein HSP90): 58.4%

CC(C)c1cc(C(=O)N2CCc3c(sc4nc(N5CCOCC5)nc(N5CCCC5)c34)C2)c(O)cc1O
inhibition at 1 µM (T-24 [1]): 57.7% | inhibition [7]: 40.9% | inhibition at 1 µM (J82 [3]): 47.9% | inhibition at 1 µM (SW780 [4]): 46% | inhibition (Heat shock protein HSP90): 53%

CC(C)c1cc(C(=O)N2CCc3c(sc4nc(-c5ccc(NC(=O)Nc6ccc(Cl)cc6)cc5)nc(N5CCOCC5)c34)C2)c(O)cc1O
inhibition at 1 µM (T-24 [1]): 86% | inhibition [7]: 77.3% | inhibition at 1 µM (J82 [3]): 83.9% | inhibition at 1 µM (SW780 [4]): 83.2% | inhibition (Heat shock protein HSP90): 66.5%

CC(C)c1cc(C(=O)N2CCc3c(sc4nc(N5CCOCC5)nc(NCCN5CCOCC5)c34)C2)c(O)cc1O
inhibition at 1 µM (T-24 [1]): 50.2% | inhibition [7]: 39.1% | inhibition at 1 µM (J82 [3]): 58.7% | inhibition at 1 µM (SW780 [4]): 75% | inhibition (Heat shock protein HSP90): 81.5%

CC(C)c1cc(C(=O)N2CCc3c(sc4nc(N5CCOCC5)nc(N5CCC(F)(F)CC5)c34)C2)c(O)cc1O
inhibition at 1 µM (T-24 [1]): 50.3% | inhibition [7]: 45.1% | inhibition at 1 µM (J82 [3]): 49.8% | inhibition at 1 µM (SW780 [4]): 52.1% | inhibition (Heat shock protein HSP90): 43.6%

Cc1cccc(NC(=O)Nc2ccc(-c3nc(N4CCOCC4)c4c5c(sc4n3)CN(C(=O)c3cc(C(C)C)c(O)cc3O)CC5)cc2)c1
inhibition at 1 µM (T-24 [1]): 84.1% | inhibition [7]: 74.7% | inhibition at 1 µM (J82 [3]): 60.5% | inhibition at 1 µM (SW780 [4]): 62.5% | inhibition (Heat shock protein HSP90): 64.6%

CC(C)c1cc(C(=O)N2CCc3c(sc4nc(N5CCOCC5)nc(N5CCCCC5)c34)C2)c(O)cc1O
inhibition at 1 µM (T-24 [1]): 57.1% | inhibition [7]: 56.6% | inhibition at 1 µM (J82 [3]): 55.4% | inhibition at 1 µM (SW780 [4]): 47.6% | inhibition (Heat shock protein HSP90): 54.9%

CC(C)c1cc(C(=O)N2CCc3c(sc4nc(N5CCCCC5)nc(N5CCOCC5)c34)C2)c(O)cc1O
inhibition at 1 µM (T-24 [1]): 43.5% | inhibition [7]: 55.7% | inhibition at 1 µM (J82 [3]): 55% | inhibition at 1 µM (SW780 [4]): 49.5% | inhibition (Heat shock protein HSP90): 46.6%

CC(C)c1cc(C(=O)N2CCc3c(sc4nc(N5CCC(F)(F)CC5)nc(N5CCOCC5)c34)C2)c(O)cc1O
inhibition at 1 µM (T-24 [1]): 34.4% | inhibition [7]: 41.3% | inhibition at 1 µM (J82 [3]): 45% | inhibition at 1 µM (SW780 [4]): 37.9% | inhibition (Heat shock protein HSP90): 36.3%

CC(C)c1cc(C(=O)N2CCc3c(sc4nc(-c5ccncc5)nc(N5CCOCC5)c34)C2)c(O)cc1O
inhibition at 1 µM (T-24 [1]): 47.1% | inhibition [7]: 49.8% | inhibition at 1 µM (J82 [3]): 37.8% | inhibition at 1 µM (SW780 [4]): 39.5% | inhibition (Heat shock protein HSP90): 35.4%

CC(C)c1cc(C(=O)N2CCc3c(sc4nc(-c5ccc(NC(=O)Nc6ccc(C(F)(F)F)cc6)cc5)nc(N5CCOCC5)c34)C2)c(O)cc1O
inhibition at 1 µM (T-24 [1]): 61.3% | inhibition [7]: 66.4% | inhibition at 1 µM (J82 [3]): 69% | inhibition at 1 µM (SW780 [4]): 61.3% | inhibition (Heat shock protein HSP90): 62.8%

COc1ccc(-c2ccc3c(N4CCOC[C@@H]4C)nc(N4CCOC[C@@H]4C)nc3n2)cc1CO [AZD-8055]
inhibition at 1 µM (T-24 [1]): 73.3% | IC50 [8]: 4.45 µM | inhibition [7]: 93.3% | IC50 (SW780 [2]): 0.81 µM | inhibition at 1 µM (J82 [3]): 72.4% | inhibition at 1 µM (SW780 [4]): 79.6% | IC50 (J82 [5]): 0.65 µM | IC50 (T-24 [6]): 0.54 µM
